The test system of this series is CCRIS mutagenicity, Ames/micronucleus/aberration tests. The experiment in a line: CCRIS mutagenicity studies. The settings on record: Test System: AMES SALMONELLA TYPHIMURIUM
Setting [1] is: Strain/Indicator: TA98, Metabolic Activation: NONE, Method: STANDARD PLATE.
[2] abbreviates: Strain/Indicator: TA98, Metabolic Activation: RAT, LIVER, S-9, AROCLOR 1254, Method: STANDARD PLATE.
Where [3] appears, read: Strain/Indicator: TA100, Metabolic Activation: NONE, Method: STANDARD PLATE.
Setting [4] is: Strain/Indicator: TA100, Metabolic Activation: RAT, LIVER, S-9, AROCLOR 1254, Method: STANDARD PLATE.
[5] abbreviates: Strain/Indicator: TA1535, Metabolic Activation: NONE, Method: STANDARD PLATE.
Where [6] appears, read: Strain/Indicator: TA1535, Metabolic Activation: RAT, LIVER, S-9, AROCLOR 1254, Method: STANDARD PLATE.
Setting [7] is: Strain/Indicator: TA1537, Metabolic Activation: NONE, Method: STANDARD PLATE.
The mark [8] stands for this setting: Strain/Indicator: TA1537, Metabolic Activation: RAT, LIVER, S-9, AROCLOR 1254, Method: STANDARD PLATE.
Where [9] appears, read: Strain/Indicator: TA1538, Metabolic Activation: NONE, Method: STANDARD PLATE.
[10] abbreviates: Strain/Indicator: TA1538, Metabolic Activation: RAT, LIVER, S-9, AROCLOR 1254, Method: STANDARD PLATE.

Structures are written as SMILES. Activity calls are given as the source filed them. The rule behind the calls is not given here.

Consider `Nc1cccc([N+](=O)[O-])c1O`, for which the mutagenic call reads like this: under setting [1], “inactive; negative”; under setting [2], “inactive; negative”; under setting [3], “inactive; negative”; under setting [4], “inactive; negative”; under setting [5], “inactive; negative”; under setting [6], “inactive; negative”. For the same compound, the mutagenic call is, setting by setting: under setting [7], “inactive; negative”; under setting [8], “inactive; negative”; under setting [9], “inactive; negative”; under setting [10], “inactive; negative”.
Turning to `Oc1ccc2c(ccc3c4ccccc4ccc23)c1`, the mutagenic call is “inactive; negative” under setting [2] and “inactive; negative” under setting [3].
As to `Cc1cc(N)c([N+](=O)[O-])c(C)c1N`, the mutagenic call is, setting by setting: under setting [1], “inactive; negative”; under setting [2], “inactive; negative”; under setting [3], “inactive; negative”; under setting [4], “inactive; negative”; under setting [5], “inactive; negative”; under setting [6], “inactive; negative”. Besides, the mutagenic call is “inactive; negative” under setting [7], “inactive; negative” under setting [8], “inactive; negative” under setting [9] and “inactive; negative” under setting [10].
As for `CCCCC/C(C=O)=C/c1ccccc1`, the mutagenic call is “inactive; negative” (Strain/Indicator: TA97, Metabolic Activation: NONE, Method: PREINCUBATION); “inactive; negative” (Strain/Indicator: TA97, Metabolic Activation: RAT, LIVER, S-9, AROCLOR 1254, Method: PREINCUBATION); “inactive; negative” (Strain/Indicator: TA102, Metabolic Activation: NONE, Method: PREINCUBATION); “inactive; negative” (Strain/Indicator: TA102, Metabolic Activation: RAT, LIVER, S-9, AROCLOR 1254, Method: PREINCUBATION).
With `CC(=O)C(Cl)Cl`, the mutagenic call under setting [1] is “inactive; negative”; the mutagenic call under setting [2] was “inactive; negative”; the mutagenic call (Strain/Indicator: TA100, Metabolic Activation: NONE, Method: FLUCTUATION TEST) was “active; positive”; the mutagenic call (Strain/Indicator: TA100, Metabolic Activation: RAT, LIVER, S-9, AROCLOR 1254, Method: FLUCTUATION TEST) was “inactive; negative”; the mutagenic call under setting [4] is “active; positive”; the mutagenic call under setting [5] is “active; positive”. Besides, the mutagenic call is, setting by setting: under setting [6], “active; positive”; under setting [7], “inactive; negative”; under setting [8], “inactive; negative”.
For the compound `CC12CCC(=O)NC1=CCC1C2CCC2(C)C(OC(=O)CCCc3ccc(N(CCCl)CCCl)cc3)CCC12` (stereo not given), the mutagenic call under setting [1] is “inactive; negative”; the mutagenic call under setting [2] is “inactive; negative”; the mutagenic call under setting [3] was “active; positive”; the mutagenic call under setting [4] was “active; positive”; the mutagenic call (Strain/Indicator: TA102, Metabolic Activation: NONE, Method: STANDARD PLATE) is “inactive; negative”; the mutagenic call (Strain/Indicator: TA102, Metabolic Activation: RAT, LIVER, S-9, AROCLOR 1254, Method: STANDARD PLATE) is “inactive; negative”. Also, the mutagenic call runs as follows: under setting [5], “active; positive”; under setting [6], “active; positive”; under setting [7], “inactive; negative”; under setting [8], “inactive; negative”.
Turning to `Cc1ccc(NN=NCc2ccc([N+](=O)[O-])cc2)cc1`, the mutagenic call is “active; positive” (Strain/Indicator: TA98, Metabolic Activation: NONE, Method: PREINCUBATION); “active; positive” (Strain/Indicator: TA98, Metabolic Activation: RAT, LIVER, S-9, PCB, Method: PREINCUBATION); “active; positive” (Strain/Indicator: TA100, Metabolic Activation: NONE, Method: PREINCUBATION); “active; positive” (Strain/Indicator: TA100, Metabolic Activation: RAT, LIVER, S-9, PCB, Method: PREINCUBATION).
With `Cc1ccc2cc3ccccc3cc2c1`, the mutagenic call runs as follows: (Strain/Indicator: TA97, Metabolic Activation: NONE, Method: STANDARD PLATE) “inactive; negative”; (Strain/Indicator: TA97, Metabolic Activation: RAT, LIVER, S-9, PCB, Method: STANDARD PLATE) “active; positive”; under setting [1], “inactive; negative”; under setting [2], “inactive; negative”; (Strain/Indicator: TA98, Metabolic Activation: RAT, LIVER, S-9, PCB, Method: STANDARD PLATE) “inactive; negative”; under setting [3], “inactive; negative”. Besides, the mutagenic call is “inactive; negative” under setting [4] and “inactive; negative” (Strain/Indicator: TA100, Metabolic Activation: RAT, LIVER, S-9, PCB, Method: STANDARD PLATE).
Turning to `C[C@H]1CCC[C@H](O)CCCCCc2cc(O)cc(O)c2C(=O)O1`, the mutagenic call under setting [1] is “inactive; negative”; the mutagenic call (Strain/Indicator: TA98, Metabolic Activation: RAT, LIVER, S-9, Method: STANDARD PLATE) was “inactive; negative”; the mutagenic call under setting [3] was “inactive; negative; toxicity at 1000 ug/plate”; the mutagenic call (Strain/Indicator: TA100, Metabolic Activation: RAT, LIVER, S-9, Method: STANDARD PLATE) was “inactive; negative”; the mutagenic call under setting [5] is “inactive; negative”; the mutagenic call (Strain/Indicator: TA1535, Metabolic Activation: RAT, LIVER, S-9, Method: STANDARD PLATE) is “inactive; negative”. The mutagenic call was “inactive; negative; toxicity at 1000 ug/plate” under setting [7]; “inactive; negative; toxicity at 1000 ug/plate” (Strain/Indicator: TA1537, Metabolic Activation: RAT, LIVER, S-9, Method: STANDARD PLATE); “inactive; negative” under setting [9]; “inactive; negative; toxicity at 1000 ug/plate” (Strain/Indicator: TA1538, Metabolic Activation: RAT, LIVER, S-9, Method: STANDARD PLATE).
For `O=S(=O)(Nc1ccc(Cl)cc1Cl)c1cccc2cccnc12`, the mutagenic call reads like this: under setting [1], “inactive; negative”; under setting [2], “inactive; negative”; under setting [3], “inactive; negative”; under setting [4], “inactive; negative”; under setting [5], “inactive; negative”; under setting [6], “inactive; negative”. Besides, the mutagenic call reads like this: under setting [7], “inactive; negative”; under setting [8], “inactive; negative”.
